The subject of one assay is S. aureus strain 305. The assay is described as follows: MIC determination on S. aureus strain 305. Conditions: Staphylococcus aureus. It counts as cell-based. Here is the method:
(§1) A classical microdilution broth method for determination of the Minimal Inhibitory Concentration (MIC) was used (Jones et al. 1985. In Manual of Clinical Microbiology, Balows et al. (Eds.), American Society for Microbiology, Washington D.C., pages 972-977). Briefly, logarithmic-phase bacteria were cultivated in tryptic soy broth and adjusted in broth to a concentration of 1×10^6 CFU/ml. Sterile microtiter plates containing 100 μl of either LysK or lysostaphin diluted in TSB are inoculated with 100 μl of the bacterial suspension to yield 5×10^5 CFU/ml. The plate is incubated at 37° C. for 20 h, at which point the plate is analyzed for clear vs. turbid wells. Each MIC assay represents at least two identical determinations per experiment.

Another assay concerns MRSA strain USA300. In words: Microdilution broth MIC determination. It counts as cell-based, Staphylococcus aureus. The following applies: MRSA USA300, TSB, 37° C., 20 h. The method, then: as §1
MIC determinations for MRSA strain USA300 by lysostaphin and C-His-LysK, were performed in a 96 well microtiter plate. (FIG. 5).
(In general: Dilution methods test growth across graded concentrations, often in twofold steps.)

The next assay deals with MRSA USA300. In words: Modified checkerboard synergy assay. It counts as cell-based, Staphylococcus aureus. The method, then: Modified checkerboard assay experiments were performed according to Graham and Coote, supra. S. aureus 305 or MRSA USA300 cells at 1×10^6 CFU/ml were prepared as for the MIC assay, and added to wells containing varying concentrations of both LysK and lysostaphin diluted in TSB. The amount of buffer in each well was adjusted to maintain the same final concentration of storage buffer (5%) and corrected with 2×TSB to maintain 1×TSB in all wells. The plate was incubated at 37° C. for 20 h, and then analyzed for clear vs. turbid wells. The Fractional Inhibitory Concentration (FIC) is calculated as the MIC of the antimicrobial in combination divided by the MIC of the antimicrobial acting alone.
To determine if these proteins could act synergistically, both LysK and lysostaphin were tested in a checkerboard assay with various concentrations of each to determine the minimal concentration of each in combination, that could inhibit growth of the MRSA USA300 (FIG. 6). The last row and column on the 96 well microtiter plate replicate the MIC determinations for lysostaphin and LysK, respectively, with nearly identical results obtained for the MIC in this assay, as in FIG. 5. […] It is apparent that the inhibition of growth when the two were added simultaneously was greater than the expected additive effect of each alone. The ΣFIC was 0.45+/−0.07 (three independent experiments), indicating strong synergistic activity (Hall et al., supra), including one assay with S. aureus 305 (data not shown).

The text below walks through data of patent US8568714B2, “Lys K endolysin is synergistic with lysostaphin against MRSA” (priority 2008, dated 2013).

Where “and” joins values, the source holds several entries; their conditions need not be identical. Equal entries are not always repeated. Where two headings read alike, the source gives them in different places.

As usually defined, the MIC is the smallest concentration in the dilution series that meets the test's criterion for growth inhibition.

For the compound `CC1(C)S[C@@H]2[C@H](NC(=O)[C@H](N)c3ccccc3)C(=O)N2[C@H]1C(=O)O` [Ampicillin], the MIC in the assay with S. aureus strain 305 (read-out: MIC) was ~0.4 µg/mL; in the assay with S. aureus strain 305 (translated from μg/ml, read-out: MIC on a molar basis) it was ~1 µM.
As for “lysostaphin: recombinant non-tagged mature 246 amino acid anti-staphylococcal bacteriocin of S. simulans, Sigma-Aldrich L0761”, the MIC is 0.096 µg/mL against MRSA strain USA300; 0.097 µg/mL and 0.096 ± 0.018 µg/mL against MRSA strain USA300 (listed as Lysostaphin). The figures for the “concentration of each in combination that inhibits growth” value in the assay with MRSA USA300 (cleared well: lysostaphin 0.018 with LysK 11.43) and in the assay with MRSA USA300 (cleared well: lysostaphin 0.027 with LysK 5.71) were 0.018 µg/mL and 0.027 µg/mL, respectively. Further, the “concentration in combination as % of each agent's MIC” value in the assay on MRSA USA300 (second cleared-well condition) was 16% and < 16%.
